# In US20190225650A1, “PEPTIDOMIMETIC MACROCYCLES AND USE THEREOF IN REGULATING HIF1ALPHA” (AILERON THERAPEUTICS, INC., priority 2013, published 2019):
# Bridge positions count the residues as written; N and C are the ends. Square brackets hold non-standard residues; d marks the D form. Peptide text beside a SMILES is read from it. S5 = C=CCCC[C@](C)(N)C(=O)O; Nle = CCCC[C@H](N)C(=O)O; Dap = NC[C@H](N)C(=O)O
# Tested on: HRE-bla ME-180 cells
# Experiment: Reporter gene assay (HRE-bla ME-180 HIF reporter, GeneBLAzer)
# Type: cell-based, human
# Conditions: for EC50: 24 hour normoxia
# Procedure, shortened: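 A FRET β-lactamase readout of HIF transcription was used. After compound treatment in 0.3% DMSO/media under normoxic conditions, 20 μl of 6× LiveBLAzer-FRET B/G (CCF4-AM) substrate was added. Plates sat 3 hr at room temperature in the dark and were read at 409 Ex/460Em and 409Ex/530Em on a Synergy 2. Inhibition was compared against DMSO vehicle controls, with chetomin as positive control.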
EC50,Compound,18 h Avg % max inhibition at top conc (HIF Rptr-24 hrs normoxia) (μM)
5 to 15 µM,CCCC[C@H](NC(=O)[C@H](CC(C)C)NC(=O)[C@@H](NC(=O)[C@H](CCC(=O)O)NC(=O)[C@H](CCC(=O)O)NC(=O)[C@H](CC(=O)O)NC(=O)[C@@H](NC(=O)[C@H](Cc1ccccc1)NC(C)=O)[C@@H](C)CC)C(C)C)C(=O)N[C@@]1(C)CCCC=CCCC[C@@](C)(C(=O)N[C@@H](CCCC)C(=O)N[C@@H](C)C(=O)N[C@@H](CC(C)C)C(=O)N[C@@H](CC(=O)O)C(=O)N[C@@H](CCCNC(=N)N)C(=O)N[C@H](C(N)=O)[C@@H](C)CC)NC(=O)[C@H]([C@@H](C)CC)NC(=O)[C@H](C(C)C)NC(=O)[C@H](CO)NC1=O [SP-51] (Ac-FIDEEVL[Nle][S5]SVI[S5][Nle]ALDRI-NH2; staple 9-13),+++ (≤25 but <50: +++)
15 to 30 µM,CCCC[C@H](NC(=O)[C@H](CC(C)C)NC(=O)[C@@H](NC(=O)[C@H](CCC(=O)O)NC(=O)[C@H](CCC(=O)O)NC(=O)[C@H](CC(=O)O)NC(=O)[C@@H](NC(=O)[C@H](Cc1ccccc1)NC(C)=O)[C@@H](C)CC)C(C)C)C(=O)N[C@@]1(C)CCCC=CCCC[C@@](C)(C(=O)N[C@@H](CCCC)C(=O)N[C@@H](C)C(=O)N[C@@H](CC(C)C)C(=O)N[C@@H](CC(=O)O)C(=O)N[C@@H](CCCNC(=N)N)C(=O)N[C@H](C(N)=O)[C@@H](C)CC)NC(=O)[C@H]([C@@H](C)CC)NC(=O)[C@H](CO)NC(=O)[C@H](CC(C)C)NC1=O [SP-52] (Ac-FIDEEVL[Nle][S5]LSI[S5][Nle]ALDRI-NH2; staple 9-13),++++ (≥50: ++++)
5 to 15 µM,CCCC[C@H](NC(=O)[C@H](CC(C)C)NC(=O)[C@@H](NC(=O)[C@H](CCC(=O)O)NC(=O)[C@H](CCC(=O)O)NC(=O)[C@H](CC(=O)O)NC(=O)[C@@H](NC(=O)[C@H](Cc1ccccc1)NC(C)=O)[C@@H](C)CC)C(C)C)C(=O)N[C@@]1(C)CCCC=CCCC[C@@](C)(C(=O)N[C@@H](CCCC)C(=O)N[C@@H](C)C(=O)N[C@@H](CC(C)C)C(=O)N[C@@H](CC(=O)O)C(=O)N[C@@H](CCCNC(=N)N)C(=O)N[C@H](C(N)=O)[C@@H](C)CC)NC(=O)[C@H](CO)NC(=O)[C@H](C(C)C)NC(=O)[C@H](CC(C)C)NC1=O [SP-53] (Ac-FIDEEVL[Nle][S5]LVS[S5][Nle]ALDRI-NH2; staple 9-13),+++ (≤25 but <50: +++)
≤ 5 µM,CCCC[C@H](NC(=O)[C@H](CC(C)C)NC(=O)[C@@H](NC(=O)[C@H](CCC(=O)O)NC(=O)[C@H](CCC(=O)O)NC(=O)[C@H](CC(=O)O)NC(=O)[C@@H](NC(=O)[C@H](Cc1ccccc1)NC(C)=O)[C@@H](C)CC)C(C)C)C(=O)N[C@@]1(C)CCCC=CCCC[C@@](C)(C(=O)N[C@@H](CO)C(=O)N[C@@H](C)C(=O)N[C@@H](CC(C)C)C(=O)N[C@@H](CC(=O)O)C(=O)N[C@@H](CCCNC(=N)N)C(=O)N[C@H](C(N)=O)[C@@H](C)CC)NC(=O)[C@H]([C@@H](C)CC)NC(=O)[C@H](C(C)C)NC(=O)[C@H](CC(C)C)NC1=O [SP-54] (Ac-FIDEEVL[Nle][S5]LVI[S5]SALDRI-NH2; staple 9-13),++++ (≥50: ++++)
5 to 15 µM,CCCC[C@H](NC(=O)[C@H](CC(C)C)NC(=O)[C@@H](NC(=O)[C@H](CCC(=O)O)NC(=O)[C@H](CCC(=O)O)NC(=O)[C@H](CC(=O)O)NC(=O)[C@@H](NC(=O)[C@H](Cc1ccccc1)NC(C)=O)[C@@H](C)CC)C(C)C)C(=O)N[C@@]1(C)CCCC=CCCC[C@@](C)(C(=O)N[C@@H](CCCC)C(=O)N[C@@H](CO)C(=O)N[C@@H](CC(C)C)C(=O)N[C@@H](CC(=O)O)C(=O)N[C@@H](CCCNC(=N)N)C(=O)N[C@H](C(N)=O)[C@@H](C)CC)NC(=O)[C@H]([C@@H](C)CC)NC(=O)[C@H](C(C)C)NC(=O)[C@H](CC(C)C)NC1=O [SP-55] (Ac-FIDEEVL[Nle][S5]LVI[S5][Nle]SLDRI-NH2; staple 9-13),++++ (≥50: ++++)
5 to 15 µM,CCCC[C@H](NC(=O)[C@H](CC(C)C)NC(=O)[C@@H](NC(=O)[C@H](CCC(=O)O)NC(=O)[C@H](CCC(=O)O)NC(=O)[C@H](CC(=O)O)NC(=O)[C@@H](NC(=O)[C@H](Cc1ccccc1)NC(C)=O)[C@@H](C)CC)C(C)C)C(=O)N[C@@]1(C)CCCC=CCCC[C@@](C)(C(=O)N[C@@H](CCCC)C(=O)N[C@@H](C)C(=O)N[C@@H](CC(C)C)C(=O)N[C@@H](CO)C(=O)N[C@@H](CCCNC(=N)N)C(=O)N[C@H](C(N)=O)[C@@H](C)CC)NC(=O)[C@H]([C@@H](C)CC)NC(=O)[C@H](C(C)C)NC(=O)[C@H](CC(C)C)NC1=O [SP-57] (Ac-FIDEEVL[Nle][S5]LVI[S5][Nle]ALSRI-NH2; staple 9-13),++++ (≥50: ++++)
> 30 µM,CCCC[C@H](NC(=O)[C@H](CC(C)C)NC(=O)[C@@H](NC(=O)[C@H](CCC(=O)O)NC(=O)[C@H](CCC(=O)O)NC(=O)[C@H](CC(=O)O)NC(=O)[C@@H](NC(=O)[C@H](Cc1ccccc1)NC(C)=O)[C@@H](C)CC)C(C)C)C(=O)N[C@@]1(C)CCCC=CCCC[C@@](C)(C(=O)N[C@@H](CCCC)C(=O)N[C@@H](C)C(=O)N[C@@H](CC(C)C)C(=O)N[C@@H](CC(=O)O)C(=O)N[C@@H](CO)C(=O)N[C@H](C(N)=O)[C@@H](C)CC)NC(=O)[C@H]([C@@H](C)CC)NC(=O)[C@H](C(C)C)NC(=O)[C@H](CC(C)C)NC1=O [SP-58] (Ac-FIDEEVL[Nle][S5]LVI[S5][Nle]ALDSI-NH2; staple 9-13),+++ (≤25 but <50: +++)
15 to 30 µM,CCCC[C@H](NC(=O)[C@H](CC(C)C)NC(=O)[C@@H](NC(=O)[C@H](CCC(=O)O)NC(=O)[C@H](CCC(=O)O)NC(=O)[C@H](CC(=O)O)NC(=O)[C@@H](NC(=O)[C@H](Cc1ccccc1)NC(C)=O)[C@@H](C)CC)C(C)C)C(=O)N[C@@]1(C)CCCC=CCCC[C@@](C)(C(=O)N[C@@H](CCCC)C(=O)N[C@@H](C)C(=O)N[C@@H](CC(C)C)C(=O)N[C@@H](CC(=O)O)C(=O)N[C@@H](CCCNC(=N)N)C(=O)N[C@@H](CO)C(N)=O)NC(=O)[C@H]([C@@H](C)CC)NC(=O)[C@H](C(C)C)NC(=O)[C@H](CC(C)C)NC1=O [SP-59] (Ac-FIDEEVL[Nle][S5]LVI[S5][Nle]ALDRS-NH2; staple 9-13),+++ (≤25 but <50: +++)
> 30 µM,CC[C@H](C)[C@H](NC(=O)[C@H](Cc1ccccc1)NC(C)=O)C(=O)N[C@@H](CC(=O)O)C(=O)N[C@@H](CCC(=O)O)C(=O)N[C@@H](CCC(=O)O)C(=O)N[C@H](C(=O)N[C@@H](CC(C)C)C(=O)N[C@@H](C)C(=O)N[C@@]1(C)CCCC=CCCC[C@@](C)(C(=O)N[C@@H](C)C(=O)N[C@@H](C)C(=O)N[C@@H](CC(C)C)C(=O)N[C@@H](CC(=O)O)C(N)=O)NC(=O)[C@H]([C@@H](C)CC)NC(=O)[C@H](C(C)C)NC(=O)[C@H](CC(C)C)NC1=O)C(C)C [SP-60] (Ac-FIDEEVLA[S5]LVI[S5]AALD-NH2; staple 9-13),+ (<10: +)
> 30 µM,CCCC[C@H](NC(=O)[C@H](CC(C)C)NC(=O)[C@@H](NC(=O)[C@H](CCC(=O)O)NC(=O)[C@H](CCC(=O)O)NC(=O)[C@H](CC(=O)O)NC(=O)[C@@H](NC(=O)[C@H](CN)NC(C)=O)[C@@H](C)CC)C(C)C)C(=O)N[C@@]1(C)CCCC=CCCC[C@@](C)(C(=O)N[C@@H](CCCC)C(=O)N[C@@H](C)C(=O)N[C@@H](CC(C)C)C(=O)N[C@@H](CC(=O)O)C(=O)N[C@@H](CCCNC(=N)N)C(=O)N[C@H](C(N)=O)[C@@H](C)CC)NC(=O)[C@H]([C@@H](C)CC)NC(=O)[C@H](C(C)C)NC(=O)[C@H](CC(C)C)NC1=O [SP-61] (Ac-[Dap]IDEEVL[Nle][S5]LVI[S5][Nle]ALDRI-NH2; staple 9-13),+ (<10: +)
> 30 µM,CCCC[C@H](NC(=O)[C@H](CC(C)C)NC(=O)[C@@H](NC(=O)[C@H](CCC(=O)O)NC(=O)[C@H](CCC(=O)O)NC(=O)[C@H](CN)NC(=O)[C@@H](NC(=O)[C@H](Cc1ccccc1)NC(C)=O)[C@@H](C)CC)C(C)C)C(=O)N[C@@]1(C)CCCC=CCCC[C@@](C)(C(=O)N[C@@H](CCCC)C(=O)N[C@@H](C)C(=O)N[C@@H](CC(C)C)C(=O)N[C@@H](CC(=O)O)C(=O)N[C@@H](CCCNC(=N)N)C(=O)N[C@H](C(N)=O)[C@@H](C)CC)NC(=O)[C@H]([C@@H](C)CC)NC(=O)[C@H](C(C)C)NC(=O)[C@H](CC(C)C)NC1=O [SP-62] (Ac-FI[Dap]EEVL[Nle][S5]LVI[S5][Nle]ALDRI-NH2; staple 9-13),++ (≤10 but <25: ++)
5 to 15 µM,CCCC[C@H](NC(=O)[C@H](CC(C)C)NC(=O)[C@@H](NC(=O)[C@H](CN)NC(=O)[C@H](CCC(=O)O)NC(=O)[C@H](CC(=O)O)NC(=O)[C@@H](NC(=O)[C@H](Cc1ccccc1)NC(C)=O)[C@@H](C)CC)C(C)C)C(=O)N[C@@]1(C)CCCC=CCCC[C@@](C)(C(=O)N[C@@H](CCCC)C(=O)N[C@@H](C)C(=O)N[C@@H](CC(C)C)C(=O)N[C@@H](CC(=O)O)C(=O)N[C@@H](CCCNC(=N)N)C(=O)N[C@H](C(N)=O)[C@@H](C)CC)NC(=O)[C@H]([C@@H](C)CC)NC(=O)[C@H](C(C)C)NC(=O)[C@H](CC(C)C)NC1=O [SP-63] (Ac-FIDE[Dap]VL[Nle][S5]LVI[S5][Nle]ALDRI-NH2; staple 9-13),+++ (≤25 but <50: +++)
> 30 µM,CCCC[C@H](NC(=O)[C@H](CC(C)C)NC(=O)[C@H](CN)NC(=O)[C@H](CCC(=O)O)NC(=O)[C@H](CCC(=O)O)NC(=O)[C@H](CC(=O)O)NC(=O)[C@@H](NC(=O)[C@H](Cc1ccccc1)NC(C)=O)[C@@H](C)CC)C(=O)N[C@@]1(C)CCCC=CCCC[C@@](C)(C(=O)N[C@@H](CCCC)C(=O)N[C@@H](C)C(=O)N[C@@H](CC(C)C)C(=O)N[C@@H](CC(=O)O)C(=O)N[C@@H](CCCNC(=N)N)C(=O)N[C@H](C(N)=O)[C@@H](C)CC)NC(=O)[C@H]([C@@H](C)CC)NC(=O)[C@H](C(C)C)NC(=O)[C@H](CC(C)C)NC1=O [SP-64] (Ac-FIDEE[Dap]L[Nle][S5]LVI[S5][Nle]ALDRI-NH2; staple 9-13),+ (<10: +)
